This assay addresses T1, human FXa (Homo sapiens, UniProt P00742).
T1 construct: human FXa, Haematologic Technologies Inc; purchased Haematologic Technologies Inc
Description: Measurement of Factor Xa Inhibition (chromogenic substrate method). The assay is classed as biochemical. The settings on record: inhibition of Factor Xa activity, screen a); chromogenic substrate S-2765, 40 min at 37° C.; specimen results. On the procedure: a) Measurement of Factor Xa Inhibition
The FXa inhibitor potency was measured with a chromogenic substrate method, in a Plato 3300 robotic microplate processor (Rosys AG, CH-8634 Hombrechtikon, Switzerland), using 96-well, half-volume microtiter plates (Costar, Cambridge, Mass., USA; Cat No 3690). Stock solutions of test substance in DMSO (72 μL), 10 mmol/L, alternatively 1 mmol/L were diluted serially 1:3 (24+48 μL) with DMSO to obtain ten different concentrations, which were analyzed as samples in the assay, together with controls and blanks. As control sample melagatran was analysed. The dilutions of each test substance were analyzed consecutively, row-wise on the microtiter plate, with wash-cycles between substances to avoid cross-contamination. […] The final assay concentrations were: test substance 0.0068-133, respectively 0.00068-13.3 μmol/L, S-2765 0.40 mmol/L (KM=0.25 mmol/L) and FXa 0.1 nmol/L. The linear absorbance increase at 405 nm during 40 min incubation at 37° C. was used for calculation of percent inhibition for the test samples, as compared to references without inhibitor and/or enzyme. […]

SMILES strings stand for the structures.

T1 sequence (P00742 235-488 limits assumed): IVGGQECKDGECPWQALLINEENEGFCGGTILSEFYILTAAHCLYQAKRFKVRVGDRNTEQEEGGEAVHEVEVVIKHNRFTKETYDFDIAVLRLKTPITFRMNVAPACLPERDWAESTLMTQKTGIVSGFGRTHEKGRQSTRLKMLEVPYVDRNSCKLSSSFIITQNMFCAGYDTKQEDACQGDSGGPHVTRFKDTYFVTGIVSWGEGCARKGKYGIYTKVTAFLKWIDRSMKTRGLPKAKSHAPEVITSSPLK
T1 sequence (P00742 41-179 partner limits assumed): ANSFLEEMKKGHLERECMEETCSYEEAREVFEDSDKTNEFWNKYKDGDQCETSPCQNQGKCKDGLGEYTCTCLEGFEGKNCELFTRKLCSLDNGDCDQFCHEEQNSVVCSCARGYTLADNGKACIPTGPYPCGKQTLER

Usually IC50 stands for the concentration that inhibits the measured activity by half. Read a high IC50 as weaker potency in that assay. For `CNCCn1nc(-c2ccc(C(=O)N3CCN(S(=O)(=O)c4cc5cc(Cl)ccc5[nH]4)CC3)cc2)ccc1=O` [Example 3, 6-{4-[4-(5-Chloro-1H-indole-2-sulphonyl)-piperazine-1-carbonyl]-phenyl}-2-(2-methylamino-ethyl)-2H-pyridazin-3-one], half-maximal inhibition (IC50) required 55 nM. In other words, the double-digit nanomolar range. In turn, `COCCOCCn1nc(-c2ccc(C(=O)N3CCN(S(=O)(=O)c4cc5cc(Cl)ccc5[nH]4)CC3)cc2)ccc1=O` [Example 9, 6-{4-[4-(5-Chloro-1H-indole-2-sulphonyl)-piperazine-1-carbonyl]-phenyl}-2-[2-(2-methoxy-ethoxy)-ethyl]-2H-pyridazin-3-one] registered an IC50 of 38 nM.

The record behind these values is patent US7419979B2, “Derivatives of 6-{4-[4-(1H-indole-2-sulphonyl)-piperazin-1-carbonyl-phenyl]}pyradizin-3-one” (AstraZeneca AB, priority 2004, dated 2008).
